What follows are molecules tested on HEK293 cells, ROS production inhibition counter-screen (assay: ROS production inhibition in HEK293 cells, late-stage follow-up, counter-screen for NOX1 inhibitor project, cell-based, IC50, set 2 (AID 435002)).

How did the IC50 turn out when `CN(C)c1ccc(NC(=O)Nc2ccc(OCc3ccccc3)cc2)cc1` was run?
The IC50 was 2370 nM.

Which IC50 does the source give for `FC(F)(F)c1ccc2c(c1)Nc1ccccc1S2` here?
Its IC50 is 1000 nM.

For `COc1cc(-c2nc(-c3ccccc3)c(-c3ccccc3)[nH]2)ccc1O`, which IC50 is on record?
Its IC50 is 1810 nM.

For `Cc1cc(Cl)ccc1NC(=S)NNC(=S)Nc1ccc(F)cc1`, which IC50 is on record?
Its IC50 is 960 nM.

— PubChem BioAssay AID435002 (The Scripps Research Institute Molecular Screening Center, 2010)
